Test results from patent US10407414B2, “Mannose derivatives for treating bacterial infections” (priority 2015, dated 2019).

These molecules were tested on bacterial strain LF82 binding to the glycoprotein BSA-(Mannose)3 (FimH antagonists) (assay: Bacterial Binding Assay (BBA)). Details: read-out: Bacterial Binding Assay IC50 ± SEM.
Format: cell-based, Escherichia coli
Text: The purpose of the Bacterial Binding Assay (BBA) is to determine the inhibition activity of selective FimH antagonists on the bacterial strain LF82 binding to the glycoprotein BSA-(Mannose)3.
Below is a list of the Materials used to run the BBA are described below. • 1. LB broth: Supplier: Gibco, #10855 • 2. D-PBS: Supplier: Wisent, #311-425-CL • 3. LB agar plates • 4. 96-well black plate (high binding): Supplier: Costar, #3925 • 5. TopSeal™-A adhesive sealing films; Supplier PerkinElmer, #6005185 • 6. Carbonate-bicarbonate buffer pH 9.6 tablets, Supplier: Medicago, #09-8922-24 • 7. Water, Supplier: Gibco, #15230-162 • 8. Bovine serum albumin (BSA): Supplier: Sigma, #A-7888 • 9. (Man)3-BSA (α1-3, α1-6 Mannotriose-BSA, 1 mg), V-Labs, #NGP1336, lot# HGDX37-169-1 • 10. Tween 20: Supplier: Sigma, #P9416 • 11. Bright-Glo Luciferase Assay System: Supplier: Promega, #E2610 • 12. LF82/Luciferase strain: Invasive ability of an Escherichia coli strain isolated from the ileal mucosa of a patient with Crohn's disease. Boudeau J, Glasser A L, Masseret E, Joly B, Darfeuille-Michaud A, Infect Immun. 1999, 67(9), 4499-509
Solutions and buffers used to run the BBA are described below. • 1. 0.04M carbonate-bicarbonate buffer (coating buffer) • 2. 40 μg/mL BSA-(Man)3: Dissolve 1 mg of (Man)3-BSA in 25 mL of water. • 3. 4000 μg/mL BSA • 4. 40 μg/mL BSA • 5. 1 μg/mL BSA-(Man)3: 150 μL of 40 μg/mL BSA-(Man)3+5.85 mL of 40 μg/mL BSA • 6. 0.5 μg/mL BSA-(Man)3 in 0.02M carbonate-bicarbonate buffer. • 7. 20 μg/mL BSA in 0.02M carbonate-bicarbonate buffer • 8. Blocking buffer (2% BSA/DPBS): 1 g of BSA in 50 mL D-PBS • 9. 2× binding buffer (0.2% BSA/D-PBS): 5 mL of blocking buffer+45 mL D-PBS. • 10. Washing buffer (D-PBS/0.01% Tween 20): 10 μL of Tween 20 in 100 mL D-PBS. • 11. 1× Bright-Glo Luciferase substrate: Dilute 1:1 the Bright-Glo Luciferase Assay System with D-PBS
The experimental protocol used in this example to run the BBA is described below.
Overnight culture of LF82/Luciferase strain: Into two Falcon 50 mL tubes, add 20 mL of LB+20 μL of 50 mg/mL Kanamycin and inoculate with a loop from glycerol stock of the LF82/Luciferase strain. Incubate overnight at 37° C. with no shaking.
Glycoprotein coating of 96-well plates: Add 100 μL/well of 0.5-2 μg/mL BSA-(Man)3. 20 μg/mL BSA is used as the control background. Seal plate using an adhesive sealing film and incubate overnight at room temperature. Wash the 96-well plate three times with 150 μL/well of D-PBS, add 170 μL/well of blocking solution and incubate 45 min (minimum) at room temperature.
Preparation of bacterial suspension: Mix the two cultures tubes (40 mL) and perform a 1:10 dilution in LB (900 μl LB+100 μl culture. Measure optical density (OD) of the bacterial cultures. OD1 ˜5×10^8 cells/mL. Centrifuge LF82 culture for 20 min at 3500 rpm at room temperature. Re-suspend bacterial pellet in D-PBS and centrifuge again for 20 min at 3500 rpm. Re-suspend bacterial pellet in D-PBS to obtain a bacterial concentration of 2×10^9 bacteria/mL. Dilute 1/10 in D-PBS to obtain a final bacterial concentration of 2×10^8 bacteria/mL (=107 bacteria/50 μL). Perform 1/10 serial dilutions in LB of each bacterial suspension, plate 10 μL of dilutions on LB agar plates (final dilutions of 10^−7) and incubate overnight at 37° C. and count CFUs to determine the actual bacteria density in the assay.
Bacterial binding assay: Add 147 μL 2× binding buffer to compound plate (containing 3 μL of compound). After blocking step is performed (at least 45 min), wash plates three times with 200 μL/well of D-PBS. With a 100 μL multichannel manual pipettor, add 50 μL/well of compound diluted in 2× binding buffer. With a 100 μL multichannel manual pipettor, add 50 μL/well of bacterial suspension. Agitate at slow speed for 1 min and incubate 40-75 min at room temperature. Wash 5 times with 150 μL/well of washing buffer and then once with D-PBS. Add 100 μL/well of 1× Bright-Glo Luciferase substrate. […]
With `CCCCn1ncc2c(C#C[C@H]3O[C@H](CO)[C@@H](O)[C@H](O)[C@@H]3O)cccc21` [Compound 21, (2R,3S,4R,5S,6R)-2-[2-(1-butylindazol-4-yl)ethynyl]-6-(hydroxymethyl)tetrahydropyran-3,4,5-triol] the IC50 was 22 ± 0.5 nM. Work on `OC[C@H]1O[C@H](C#Cc2cc(-c3cc(F)ccc3F)cc3cn[nH]c23)[C@@H](O)[C@@H](O)[C@@H]1O` [Compound 86, (2R,3S,4R,5S,6R)-2-[2-[5-(2,5-difluorophenyl)-1H-indazol-7-yl]ethynyl]-6-(hydroxymethyl)tetrahydropyran-3,4,5-triol] yielded an IC50 of 1 ± 0.2 nM. For `Cc1cc(C#C[C@H]2O[C@H](CO)[C@@H](O)[C@H](O)[C@@H]2O)c2[nH]ncc2c1` [Compound 2, (2R,3S,4R,5S,6R)-2-(hydroxymethyl)-6-[2-(5-methyl-1H-indazol-7-yl)ethynyl]tetrahydropyran-3,4,5-triol], the IC50 was 14 ± 2 nM. `CCCCc1cc(C#C[C@H]2O[C@H](CO)[C@@H](O)[C@H](O)[C@@H]2O)c2[nH]nnc2c1` [Compound 19, (2R,3S,4R,5S,6R)-2-[2-(6-butyl-3H-benzotriazol-4-yl)ethynyl]-6-(hydroxymethyl)tetrahydropyran-3,4,5-triol] was tested, and the IC50 was 2 ± 0.6 nM. `CS(=O)(=O)c1ccc(-c2cc(C#C[C@H]3O[C@H](CO)[C@@H](O)[C@H](O)[C@@H]3O)c3[nH]ncc3c2)cc1` [Compound 35, (2R,3S,4R,5S,6R)-2-(hydroxymethyl)-6-[2-[5-(4-methylsulfonylphenyl)-1H-indazol-7-yl]ethynyl]tetrahydropyran-3,4,5-triol] was tested, and the IC50 was 0.5 ± 0.1 nM. Molecule `OC[C@H]1O[C@H](C#Cc2cc(-c3cccnc3)cc3cn[nH]c23)[C@@H](O)[C@@H](O)[C@@H]1O` [Compound 27, (2R,3S,4R,5S,6R)-2-(hydroxymethyl)-6-[2-[5-(3-pyridyl)-1H-indazol-7-yl]ethynyl]tetrahydropyran-3,4,5-triol] has an IC50 of 0.2 ± 0.03 nM. `Cc1cc(O)ccc1-c1cc(C#C[C@H]2O[C@H](CO)[C@@H](O)[C@H](O)[C@@H]2O)c2[nH]ncc2c1` [Compound 91, (2R,3S,4R,5S,6R)-2-(hydroxymethyl)-6-[2-[5-(4-hydroxy-2-methyl-phenyl)-1H-indazol-7-yl]ethynyl]tetrahydropyran-3,4,5-triol] showed an IC50 of 0.3 ± 0.03 nM. In the case of `Cc1nc(O)ccc1-c1cc(C#C[C@H]2O[C@H](CO)[C@@H](O)[C@H](O)[C@@H]2O)c2[nH]ncc2c1` [Compound 80, (2R,3S,4R,5S,6R)-2-(hydroxymethyl)-6-[2-[5-(6-hydroxy-2-methyl-3-pyridyl)-1H-indazol-7-yl]ethynyl]tetrahydropyran-3,4,5-triol], the IC50 is reported as 0.2 ± 0.08 nM. For `O=c1ccc(-c2cc(C#C[C@H]3O[C@H](CO)[C@@H](O)[C@H](O)[C@@H]3O)c3[nH]ncc3c2)c[nH]1` [Compound 74, 5-[7-[2-[(2R,3S,4R,5S,6R)-3,4,5-trihydroxy-6-(hydroxymethyl)tetrahydropyran-2-yl]ethynyl]-1H-indazol-5-yl]-1H-pyridin-2-one], the IC50 was 0.3 ± 0.05 nM. Work on `Cc1ccc(C#N)cc1-c1cc(C#C[C@H]2O[C@H](CO)[C@@H](O)[C@H](O)[C@@H]2O)c2[nH]ncc2c1` [Compound 89, 4-methyl-3-[7-[2-[(2R,3S,4R,5S,6R)-3,4,5-trihydroxy-6-(hydroxymethyl)tetrahydropyran-2-yl]ethynyl]-1H-indazol-5-yl]benzonitrile] yielded an IC50 of 0.5 ± 0.04 nM. For `Cc1ccc(C)c(-c2cc(C#C[C@H]3O[C@H](CO)[C@@H](O)[C@H](O)[C@@H]3O)c3[nH]ncc3c2)c1` [Compound 82, (2R,3S,4R,5S,6R)-2-[2-[5-(2,5-dimethylphenyl)-1H-indazol-7-yl]ethynyl]-6-(hydroxymethyl)tetrahydropyran-3,4,5-triol], the IC50 was 1 nM. Work on `CN1CC=C(c2cc(C#C[C@H]3O[C@H](CO)[C@@H](O)[C@H](O)[C@@H]3O)c3[nH]ncc3c2)CC1` [Compound 67, (2R,3S,4R,5S,6R)-2-(hydroxymethyl)-6-[2-[5-(1-methyl-3,6-dihydro-2H-pyridin-4-yl)-1H-indazol-7-yl]ethynyl]tetrahydropyran-3,4,5-triol] yielded an IC50 of 2 ± 0.9 nM. `O=c1cc(-c2cc(C#C[C@H]3O[C@H](CO)[C@@H](O)[C@H](O)[C@@H]3O)c3[nH]ncc3c2)cc[nH]1` [Compound 85, 4-[7-[2-[(2R,3S,4R,5S,6R)-3,4,5-trihydroxy-6-(hydroxymethyl)tetrahydropyran-2-yl]ethynyl]-1H-indazol-5-yl]-1H-pyridin-2-one] was tested, and the IC50 was 0.4 ± 0.2 nM. For `Cc1cc(OCc2ccccc2)ncc1-c1cc(C#C[C@H]2O[C@H](CO)[C@@H](O)[C@H](O)[C@@H]2O)c2[nH]ncc2c1` [Compound 55, (2R,3S,4R,5S,6R)-2-[2-[5-(6-benzyloxy-4-methyl-3-pyridyl)-1H-indazol-7-yl]ethynyl]-6-(hydroxymethyl)tetrahydropyran-3,4,5-triol], the IC50 was 2 ± 0.05 nM. For `COC(=O)c1cc(C#C[C@H]2O[C@H](CO)[C@@H](O)[C@H](O)[C@@H]2O)c2[nH]ncc2c1` [Compound 57, Methyl 7-[2-[(2R,3S,4R,5S,6R)-3,4,5-trihydroxy-6-(hydroxymethyl)tetrahydropyran-2-yl]ethynyl]-1H-indazole-5-carboxylate], the IC50 was 2 ± 0.6 nM. For `CN(C)c1ccc(-c2cc(C#C[C@H]3O[C@H](CO)[C@@H](O)[C@H](O)[C@@H]3O)c3[nH]ncc3c2)cc1` [Compound 29, (2R,3S,4R,5S,6R)-2-[2-[5-[4-(dimethylamino)phenyl]-1H-indazol-7-yl]ethynyl]-6-(hydroxymethyl)tetrahydropyran-3,4,5-triol], the IC50 was 1 ± 0.7 nM. For `Cn1ncc2cccc(C#C[C@H]3O[C@H](CO)[C@@H](O)[C@H](O)[C@@H]3O)c21` [Compound 13, (2R,3S,4R,5S,6R)-2-(hydroxymethyl)-6-[2-(1-methylindazol-7-yl)ethynyl]tetrahydropyran-3,4,5-triol], the IC50 was 480 ± 150 nM. For `CCc1ccccc1-c1cc(C#C[C@H]2O[C@H](CO)[C@@H](O)[C@H](O)[C@@H]2O)c2[nH]ncc2c1` [Compound 87], the IC50 was 1 nM. `CCCCc1cc(C#C[C@H]2O[C@H](CO)[C@@H](O)[C@H](O)[C@@H]2O)c2[nH]ncc2c1` [Compound 24, (2R,3S,4R,5S,6R)-2-[2-(5-butyl-1H-indazol-7-yl)ethynyl]-6-(hydroxymethyl)tetrahydropyran-3,4,5-triol] gave an IC50 of 1 ± 0.2 nM. With `Cc1ccncc1-c1cc(C#C[C@H]2O[C@H](CO)[C@@H](O)[C@H](O)[C@@H]2O)c2[nH]ncc2c1` [Compound 77, (2R,3S,4R,5S,6R)-2-(hydroxymethyl)-6-[2-[5-(4-methyl-3-pyridyl)-1H-indazol-7-yl]ethynyl]tetrahydropyran-3,4,5-triol] the IC50 was 0.1 ± 0.02 nM. `NC1(C#Cc2cc(C#C[C@H]3O[C@H](CO)[C@@H](O)[C@H](O)[C@@H]3O)c3[nH]ncc3c2)CCCCC1` [Compound 50] was tested, and the IC50 was 9 ± 1 nM. Molecule `Cc1cnccc1-c1cc(C#C[C@H]2O[C@H](CO)[C@@H](O)[C@H](O)[C@@H]2O)c2[nH]ncc2c1` [Compound 34, (2R,3S,4R,5S,6R)-2-(hydroxymethyl)-6-[2-[5-(3-methyl-4-pyridyl)-1H-indazol-7-yl]ethynyl]tetrahydropyran-3,4,5-triol] has an IC50 of 0.4 ± 0.09 nM.
